US6573258B2, “Photodynamic porphyrin antimicrobial agents” (Frontier Scientific, Inc., priority 2000, dated 2003)

Tests used:
[1] = test system: E. coli cells; assay: Decrease of cell survival (colony counting) after white-light irradiation; format: cell-based, Escherichia coli; conditions: for DECREASE OF SURVIVAL (log): 5 min dark incubation, 15 min white light (150 mW/cm^2)
Method: (§1) Escherichia coli strain O4 (wild type), and methycillin-resistant Staphylococcus aureus, strain MRSA 110, were grown aerobically at 37° C. in brain heart infusion broth (BHI, Difco, Detroit, Mich.). The cells in the stationary phase of growth were harvested by centrifugation (2,000 g for 15 min) of the broth cultures, washed twice with 10 mM PBS at pH=7.4, containing 2.7 mM KCl and 0.14 M NaCl, and suspended in PBS at a density of 10^8-10^9 cells/ml (absorbance of about 0.7 at 650 nm). Aliquots of 5 ml of the cell suspension were incubated with 1 μM porphyrins for 5 min in the dark at room temperature. After incubation the suspensions were centrifuged and the cell pellets were collected immediately or washed with PBS and centrifuged again for one or three times.
(§2) The toxic effects of T4MPyP and its analogues on E. coli and S. aureus cells were evaluated by measuring the extent of growth inhibition (bacteriostatic effect) and reduction of survival (cytocidal/bacteriocidal effect) following treatment with porphyrin in the dark or upon light exposure.
(§3) In all cases, 5 ml of the cell suspension (10^8-10^9 cells/ml) were incubated for 5 min in the dark at room temperature with the selected photosensitizer at concentrations ranging between 0.5 and 10 μM. After dark-incubation, some of the cell samples were irradiated with white light (150 mW/cm^2). During irradiation, (up to 30 min) the cells were kept at 37° C. and magnetically stirred. The treated and untreated control cells were diluted with BHI and maintained at 37° C. while the absorbance of the suspension at 650 nm was monitored at predetermined time periods for determining growth curves. The percent of growth inhibition in the treated cells was calculated by the following equation: […]
(§4) where AX, and AC are the absorbances measured after 3 h incubation, respectively, for the treated and control cell suspensions, respectively, while A0 represents the initial absorbance and the AC is that of the control cell suspension after 5 hours incubation. Cell survival was determined by plating serially diluted aliquots of treated and untreated cells on brain heart agar and counting the number of colonies after 18-24 h incubation at 37° C.

[2] = test system: E. coli cells; assay: Growth inhibition after 5 min incubation with porphyrin and white-light irradiation; format: cell-based, Escherichia coli; conditions: for concentration photoinducing significant bacteriostatic and bactericidal action: both cell strains (S. aureus and E. coli)
Method: (§5) The abilities of various examples of the porphyrins of the instant invention to kill Gram-negative and Gram-positive bacteria were tested against that of T4MPyP. Each of the compounds was incubated with E. coli and S. aureus cells for 5 minutes, following which the samples were irradiated with white light for varying lengths of time.
as §1, §2, §3, §4

[3] = Photosensitized photooxidation of NATA; conditions: 10 μM NATA; for ΦSDS × 10^3, quantum yield for photo-oxidation of NATA: aqueous 2% SDS; for ΦPBS × 10^3, quantum yield for photo-oxidation of NATA: phosphate buffered solution
Method: The photosensitizing activity of the various porphyrins was tested by measuring their efficiency in promoting the photooxidation of N-acetyl-L-tryptophanamide (NATA, Aldrich Chem. Co.) as a model biological substrate. Toward this aim, 10 μM NATA in PBS or in water containing 2% SDS was irradiated in the presence of 5 μM porphyrin. The irradiations were performed with 515±10 nm-light isolated by means of an interference filter (Balzers, Liechtenstein), while the solution (2 ml) was magnetically stirred in a quartz cuvette of 1-cm optical path and kept at 25° C. The photosensitized modification of NATA was followed by measuring the decrease in the intensity of its fluorescence emission spectrum (300-450 nm) upon excitation with 290 nm-light at various irradiation times. Plots of in F°/F (where F° and F represent the fluorescence intensity at time 0 and t, respectively) vs. the irradiation time allowed the first-order rate constants of the photo-process to be derived.
The intensity of the incident light was measured by using Aberchrome 999P in toluene as an actinometer. Heller, EPA Newslett., 29:49-60 (1987). This parameter was used to calculate the quantum yields of NATA photooxidation sensitized by the different porphyrins.

[4] = test system: E. coli cells; assay: Dark toxicity of porphyrins on bacteria cells; format: cell-based, Escherichia coli; conditions: 10 μM, 5 min incubation in the dark
Method: as §2, §3, §4

[5] = test system: S. aureus cells; assay: Dark toxicity of porphyrins on bacteria cells; format: cell-based, Staphylococcus aureus; conditions: 10 μM, 5 min incubation in the dark
Method: as §2, §3, §4

[6] = test system: S. aureus cells; assay: Growth inhibition after 5 min incubation with porphyrin and white-light irradiation; format: cell-based, Staphylococcus aureus
Method: as §5, §1, §2
[…] After dark-incubation, some of the cell samples were irradiated with white light (150 mW/cm^2). During irradiation, (up to 30 min) the cells were kept at 37° C. and magnetically stirred. The treated and untreated control cells were diluted with BHI and maintained at 37° C. while the absorbance of the suspension at 650 nm was monitored at predetermined time periods for determining growth curves. The percent of growth inhibition in the treated cells was calculated by the following equation:
as §4

[7] = Triplet state properties by laser flash photolysis; format: physicochemical; conditions: phosphate-buffered solution; for φT, triplet quantum yield: ε920 estimated by total depletion method
Method: Laser flash photolysis experiments were carried out by use of the setup previously described in Gomer, et al., with excitation wavelengths of 355 and 420 nm. Gorner, et al., Photoinduced electron transfer between styrylanthracenes and electron donors and acceptors in acetonitrile, J. Chem. Soc. Faraday Trans., vol. 88, pp. 29-34 (1992).
The transient spectra of the porphyrins in buffer solutions were recorded upon laser flash photolysis excitation at 355 and 420 nm. […] The decay (growth) of the signal (bleaching) occurred according to first-order kinetics and led to a complete recovery of the ground state with a lifetime of 91 μs. […] This also allowed the triplet quantum yield (φT) to be determined (see Table 3), after calibration of the experimental setup by use of an optically-matched solution of benzophenone in acetonitrile.

[8] = Fluorescence decay times (phase-shift method); format: physicochemical; conditions: ca. 5 μM, air-equilibrated buffer pH 7.4, λexc = 420 nm, λem > 600 nm; for A1, relative weight of fast component: dihydrochloride salt
Method: Fluorescence decay times of the porphyrin samples were measured by means of a Spex Fluorolog-τ2 spectrofluorimeter based on the phase-shift method. The frequency response curves (phase-shift and demodulation ratio vs. frequency) were globally analyzed.

[9] = Fluorescence quantum yields; format: physicochemical; conditions: for ΦF (PBS), fluorescence quantum yield: in PBS; for ΦF (SDS), fluorescence quantum yield: in aqueous 2% SDS
Method: Ground-state absorption spectra of the porphyrins (ca. 5 μM in phosphate buffered saline (PBS, pH=7.4) were recorded with a Lambda 5 Perkin-Elmer spectrophotometer. Fluorescence spectra, corrected for the instrumental response, were recorded with a Perkin-Elmer (model LS) or a Spex (Fluorolog F112) spectrofluorimeter. Fluorescence quantum yields ((IF) of the porphyrin derivatives in PBS and in water containing 2% sodium dodecylsulfate (a detergent, hereinafter “SDS”) were determined by measuring the area of the emission spectrum (600-800 nm range, excitation at 560 nm) and using tetra-n-propylporphycene in toluene as a reference (ΦF=0.38). Braslavsky et al, J. Photochem. Photobiol. B: Biol., 40:191-198 (1997). In all cases, the absorbance of the sample and the reference solution were kept below 0.1 at the excitation wavelength to minimize inner filter effects.

[10] = test system: S. aureus cells; assay: Binding of porphyrins to bacteria cells; format: cell-based, Staphylococcus aureus; conditions: 1 μM, 5 min
Method: as §1
The amount of cell-bound porphyrins was determined in the pellets after resuspension and overnight-incubation in 2% aqueous SDS. The porphyrin concentration in the cell lysate was determined by measuring the intensity of red fluorescence (600-750 nm) emitted after excitation at 420 nm and interpolating the data on a calibration plot obtained with known porphyrin concentrations. The protein content of the cell samples was determined by the method of Lowry (Lowry et al., J. Biol. Chem., 193:265-275 (1951)) and was used to express the amount of porphyrin bound to the cells as nanomoles of porphyrin/mg of protein.

[11] = 0.5 μM, incubated 5 min, white light 5 min
[12] = Table 5: 0.5 μM, 5 min incubation, 5 min white light (150 mW/cm^2)
[13] = 0.5 μM, incubated 5 min, white light 10 min

## 5-(4-N-hexylpyridyl)-10,15,20-tris(4-N-methylpyridyl)-21H,23H-porphine tetrachloride dihydrochloride salt [Porphyrin C6]
[1]; 1 μM porphyrin
  DECREASE OF SURVIVAL (log): +0.05 log
[1]; 10 μM porphyrin
  DECREASE OF SURVIVAL (log): −4.23 ± 0.54 log
[2]; [11]
  Growth inhibition (%) E. coli: 4.8%
[2]; 0.5 μM, incubated 5 min, white light 30 min
  Growth inhibition (%) E. coli: 15.5%
[2]; 10 μM, incubated 5 min, white light 5 min
  Growth inhibition (%) E. coli: 98.7%
[2]; 10 μM, incubated 5 min, white light 10 min
  Growth inhibition (%) E. coli: 100%
[2]; [12]
  Growth inhibition (%) E. coli: 5%
[2]; Table 5: 10 μM, 5 min incubation, 5 min white light (150 mW/cm^2)
  Growth inhibition (%) E. coli: 99%
[2]
  concentration photoinducing significant bacteriostatic and bactericidal action: 10 µM
[3]
  ΦSDS × 10^3, quantum yield for photo-oxidation of NATA: 0.68 ± 0.14
  ΦPBS × 10^3, quantum yield for photo-oxidation of NATA: 0.59 ± 0.05
[4]
  inhibition of bacterial cell growth in the dark: barely detectable inhibition
[5]
  inhibition of bacterial cell growth in the dark: barely detectable inhibition
[6]; [12]
  Growth inhibition (%) S. aureus: 47%
[7]
  λmax of transient spectrum: 480 nm
  λmin of transient spectrum: 425 nm
  φ×ε920: 6217 M⁻¹ cm⁻¹
  τ^N2, triplet lifetime: 71 μs
  τ^air, triplet lifetime: 16 μs
  φT, triplet quantum yield: 0.48
[8]
  A2, relative weight of slow component: 94%
  τ1, fluorescence decay time of fast component: 0.9 ns
  τ2, fluorescence decay time of slow component: 5.1 ns
  A1, relative weight of fast component: 6%
[9]
  ΦF (PBS), fluorescence quantum yield: 0.018
  ΦF (SDS), fluorescence quantum yield: 0.029
[10]
  association with S. aureus compared with E. coli: almost two-fold larger

## CCCCCCCCCC[n+]1ccc(-c2c3nc(c(-c4cc[n+](C)cc4)c4ccc([nH]4)c(-c4cc[n+](C)cc4)c4nc(c(-c5cc[n+](C)cc5)c5ccc2[nH]5)C=C4)C=C3)cc1.Cl.Cl.[Cl-].[Cl-].[Cl-].[Cl-] [Porphyrin C10, 5-(4-N-decylpyridyl)-10,15,20-tris(4-N-methylpyridyl)-21H,23H-porphine tetrachloride dihydrochloride salt]
[1]; 1 μM porphyrin
  DECREASE OF SURVIVAL (log): −4.32 ± 0.34 log
[1]; 1 μM porphyrin, 15 min irradiation
  drop in survival of E. coli cells: 4 log
[2]; [11]
  Growth inhibition (%) E. coli: 46.3%
[2]; [13]
  Growth inhibition (%) E. coli: 92%
[2]; 1 μM, incubated 5 min, white light 5 min
  Growth inhibition (%) E. coli: 96.1%
[2]; 1 μM, incubated 5 min, white light 10 min
  Growth inhibition (%) E. coli: 100%
[2]; [12]
  Growth inhibition (%) E. coli: 46%
[2]
  concentration photoinducing significant bacteriostatic and bactericidal action: ten-fold lower concentration
[3]
  ΦSDS × 10^3, quantum yield for photo-oxidation of NATA: 0.64 ± 0.26
  ΦPBS × 10^3, quantum yield for photo-oxidation of NATA: 0.59 ± 0.05
[6]; [11]
  Growth inhibition (%) S. aureus: 73.9%
[6]; [13]
  Growth inhibition (%) S. aureus: 87.9%
[6]; [12]
  Growth inhibition (%) S. aureus: 74%
[7]
  λmax of transient spectrum: 490 nm
  λmin of transient spectrum: 420 nm
  φ×ε920: 10214 M⁻¹ cm⁻¹
  τ^N2, triplet lifetime: 67 μs
  τ^air, triplet lifetime: 20 μs
  φT, triplet quantum yield: 0.49
[8]
  A2, relative weight of slow component: 94%
  τ1, fluorescence decay time of fast component: 1.1 ns
  τ2, fluorescence decay time of slow component: 5.2 ns
  A1, relative weight of fast component: 6%
[9]
  ΦF (PBS), fluorescence quantum yield: 0.015
  ΦF (SDS), fluorescence quantum yield: 0.026
[10]
  association with S. aureus compared with E. coli: almost two-fold larger
